The record followed here is patent US20110244506A1, “EGFR DEPENDENT MODULATION OF CHEMOKINE EXPRESSION AND INFLUENCE ON THERAPY AND DIAGNOSIS OF TUMORS AND SIDE EFFECTS THEREOF” (Merck Patent GmbH, priority 2005, published 2011).

In one assay the test system is RANTES, A431. Kind of assay: Secreted RANTES levels in A431 (Luminex). The format is cell-based. Conditions: A431, with or without TGFa or TNFa, 24 h, supernatant. On the procedure:
(§1) Tumor cells were treated with anti-EGFR agents and this was followed by treatment with or without TGF alpha or TNF alpha. Secreted chemokines were evaluated in conditioned medium of tumor cells obtained after 24 h. Evaluation was carried out with the Luminex bead technology.
(§2) After 24 h, cellular supernatants were collected and levels of RANTES were quantified using the Luminex technology.

In a further assay the test system is IL-8, A431. In words: Secreted IL-8 levels in A431 (Luminex). Conditions: for secreted IL-8 levels: A431, with or without TGFa or TNFa, 24 h, supernatant. Type of assay: cell-based. Here is the method:
as §1
(§3) After 24 h, cellular supernatants were collected and levels of IL-8 were quantified using the Luminex technology.
(§4) Cells were treated with 100 ng/ml Cmab or Mmab and stimulated with 100 ng/ml TGFa; number of experiments=1

Another assay has as its system IL-8, keratinocytes. In words: Secreted IL-8 levels in keratinocytes (Luminex). The format is cell-based. Conditions: with or without TGFa or TNFa, 24 h, supernatant. Here is the method: (§5) Evaluations were carried out with the Luminex bead technology. In these experiments keratinocytes were treated with anti-EGFR inihibitors followed by treatment with or without TGF alpha or TNF alpha.
as §3

For the next assay, the system named is IP-10, keratinocytes. In words: Secreted IP-10 levels in keratinocytes (Luminex). The format is cell-based. Conditions: with or without TGFa or TNFa, 24 h, supernatant. On the procedure:
as §5
(§6) After 24 h, cellular supernatants were collected and levels of IP-10 were quantified using the Luminex technology.

In the next assay the test system is STAT3. Kind of assay: Western blotting of STAT3 phosphorylation in keratinocytes. Conditions: with or without TGFa or TNFa, 24 h. The format is cell-based. On the procedure:
(§7) In these experiments keratinocytes were treated with different concentrations of anti-EGFR inhibitors followed by treatment with or without TGF alpha or TNF alpha for, approximately, 24 h. Effects of anti-EGFR inhibitors were evaluated using Western blotting.
(§8) After 24 h, cells were lysed and analysed by Western blotting.
In general terms: A western blot detects proteins with antibodies after separation by electrophoresis.

For the next assay, the system named is COX-2. In words: Western blotting of COX-2 protein in keratinocytes. Conditions: with or without TGFa or TNFa, 24 h. Type of assay: cell-based. Here is the method: as §7, §8
A further assay relates to IP-10, A431. Kind of assay: Secreted IP-10 levels in A431 (Luminex). Conditions: A431, with or without TGFa or TNFa, 24 h, supernatant. Type of assay: cell-based. On the procedure:
as §1, §6

Another assay concerns ERK1/2 (Thr 202/204). Kind of assay: Western blotting of ERK1/2 phosphorylation in keratinocytes. Conditions: with or without TGFa or TNFa, 24 h.
The next assay concerns RANTES, keratinocytes. Kind of assay: Secreted RANTES levels in keratinocytes (Luminex). Conditions: with or without TGFa or TNFa, 24 h, supernatant. The format is cell-based. On the procedure:
as §5, §2

The test system of another assay is IL-8, DiFi. Kind of assay: Secreted IL-8 levels in DiFi (Luminex). The format is cell-based. Conditions: 100 ng/ml antibody, stimulated with 100 ng/ml TGFa, number of experiments=1. On the procedure:
as §3, §4

For another assay, the system named is IL-8, HT29. Kind of assay: Secreted IL-8 levels in HT29 (Luminex). Type of assay: cell-based. Conditions: 100 ng/ml antibody, stimulated with 100 ng/ml TGFa, number of experiments=1. On the procedure: as §3, §4
The test system of assay [1] is IL-8, tumor cell lines (DiFi, HT29, A431, MCF-7, PC-3 and U87 MG). In words: Secreted IL-8 levels in different tumor cell lines (Luminex). Type of assay: cell-based. Conditions: stimulated with TGFa, 24 h. Here is the method:
as §3

A further assay deals with IL-8, PC-3. Kind of assay: Secreted IL-8 levels in PC-3 (Luminex). Conditions: 100 ng/ml antibody, stimulated with 100 ng/ml TGFa, number of experiments=1. Type of assay: cell-based. On the procedure: as §3, §4
Assay [2] relates to EGFR-dependent signaling cascades, tumor cell lines such as A431. Kind of assay: EGFR-dependent signaling cascades in tumor cell lines. The format is cell-based. Conditions: various tumor cell lines such as A431.
The test system of the next assay is IL-8, MCF-7. In words: Secreted IL-8 levels in MCF-7 (Luminex). Conditions: 100 ng/ml antibody, stimulated with 100 ng/ml TGFa, number of experiments=1. The format is cell-based. Here is the method:
as §3, §4

For a further assay, the target named is EGFR (Tyr 1068) (Homo sapiens, UniProt P00533). In words: Western blotting of EGFR phosphorylation in keratinocytes. Conditions: with or without TGFa or TNFa, 24 h.
For another assay, the system named is IL-8, U87MG. Kind of assay: Secreted IL-8 levels in U87MG (Luminex). Conditions: 100 ng/ml antibody, stimulated with 100 ng/ml TGFa, number of experiments=1. The format is cell-based. On the procedure:
as §3, §4

`COc1cc2ncnc(Nc3ccc(F)c(Cl)c3)c2cc1OCCCN1CCOCC1` [Iressa, gefitinib, reference compound]: the “secreted RANTES levels” value was “up-regulated RANTES in a dose-dependent manner” with RANTES, A431 and “up-regulated RANTES in a dose-dependent manner” with RANTES, keratinocytes. In addition, the “secreted IL-8 levels” value in the assay with IL-8, A431 is “down-regulated IL-8 in a dose-dependent manner”; in the assay on IL-8, keratinocytes, “down-regulated IL-8 in a dose-dependent manner”. Also, the “secreted IP-10 levels” value with IP-10, keratinocytes is listed as “up-regulated IP-10 in a dose-dependent manner”; with IP-10, A431, “up-regulated IP-10 in a dose-dependent manner”. In addition, the “phosphorylation of STAT3” value in the assay with STAT3 is recorded as “prevented phosphorylation of STAT3”. The “expression of COX-2” value with COX-2 is “induced expression of COX-2”. Besides, the “phosphorylation of ERK1/2 (Thr 202/204)” value in the assay with ERK1/2 (Thr 202/204) was “prevented phosphorylation”.

For the molecule “Matuzumab: humanized monoclonal antibody 425 directed to the EGF receptor”, the “secreted RANTES levels” value in the assay with RANTES, A431 is given as “up-regulated RANTES in a dose-dependent manner”; in the assay on RANTES, keratinocytes it was “up-regulated RANTES in a dose-dependent manner”. Moreover, the “secreted IL-8 levels” value is on record as “down-regulated IL-8 in a dose-dependent manner” in the assay with IL-8, A431; “down-regulated IL-8 in a dose-dependent manner” with IL-8, keratinocytes; “down-regulated IL-8 in all tumor cell lines investigated in a dose-dependent manner” in [1]. Further, the IL-8 levels is reported as 15 % control in the assay with IL-8, A431 (A431, 100 ng/ml antibody, stimulated with 100 ng/ml TGFa, number of experiments=1); 28 % control with IL-8, DiFi; 30 % control in the assay on IL-8, HT29; 76 % control with IL-8, PC-3; 49 % control with IL-8, MCF-7; 58 % control with IL-8, U87MG. The “secreted IP-10 levels” value is given as “up-regulated IP-10 in a dose-dependent manner” in the assay on IP-10, keratinocytes and “up-regulated IP-10 in a dose-dependent manner” with IP-10, A431. Besides, the “phosphorylation of STAT3” value in the assay with STAT3 is “prevented phosphorylation of STAT3”. The “expression of COX-2” value in the assay on COX-2 was “induced expression of COX-2”. Also, the EGFR-dependent signaling cascades result in assay [2] is given as “interferes with EGFR-dependent signaling cascades”. Besides, the “phosphorylation of EGFR (Tyr 1068)” value in the assay with EGFR (Tyr 1068) is “prevented phosphorylation”. Besides, in the assay on ERK1/2 (Thr 202/204), the “phosphorylation of ERK1/2 (Thr 202/204)” value is on record as “prevented phosphorylation”.
